Columns and labels:
[1] = tested on: tubulin in tobacco suspension-cultured cells; experiment: Whole cell binding assay, tritiated compound 1 as probe, tobacco suspension-cultured cells; settings: for Binding of radioligand (% control): 2 hours preincubation, 20 minutes with tritiated compound 1; for Effect on binding of the radioligand (in words): tobacco cells, tritiated compound 1
Method: The effects of various antitubulin compounds from different chemical classes on binding of compound 1 to tubulin in tobacco suspension-cultured cells is shown in this example.
Aliquots (2 ml) of suspension-cultured tobacco cells grown as described in Example 2 were added to 25 ml capacity glass vials. Each vial then received 5 μl of DMSO (control) or 5 μl of an antitubulin compound dissolved in DMSO. Vials were incubated with shaking at 27° C. for 2 hours, then 5 μl of a 100 μM solution of tritium-labeled compound 1 in DMSO was added. Vials were incubated with shaking at 27° C. for 20 minutes, then binding of the radioligand was stopped by adding 5 μl of unlabeled 40 mM compound 1. The samples were incubated with shaking at 27° C. for a further 20 minutes, then transferred to 15 ml capacity polypropylene centrifuge tubes in an ice bath. Each vial was rinsed with 2 ml ice-cold growth medium (described in example 2) and the rinse solution was then added to the rest of the sample. Following centrifugation at 4° C. for 3 minutes at 2,500 rpm the supernatant was discarded and the pelleted cells were resuspended in 4 ml of ice-cold 10% trichloroacetic acid. Samples were kept for 1 hour in an ice bath, centrifuged again, and the cells resuspended in 4 ml of ice-cold ethanol. After incubation for a further 1 hour in an ice-bath the cells were collected by filtration on glass fiber filters and washed twice with 10 ml of ice-cold ethanol. The filters with washed cells were transferred to scintillation vials, 10 ml of Hydrofluor™ scintillation fluid (National Diagnostics, Manville, N.J.) was added to each, and the samples were counted in a scintillation counter to determine the amount of bound radioactivity. The effects of different antitubulin compounds on binding of the radioligand are presented in Table 7 with the amounts of radioligand bound in the presence of each antitubulin compound expressed as a percentage of the amount of radioligand bound in the DMSO control.

[2] = target: tubulin in Phytophthora capsici (Phytophthora capsici, UniProt A4ZYP2); experiment: Binding assay, tritiated compound 1 as probe, germinated zoospore cysts of Phytophthora capsici; settings: 1 hour preincubation; for IC50: 20 minutes with tritiated compound 1, read-out: IC50 (concentration required to inhibit binding of the radioligand by 50%) (converted)
Method: The effect of zarilamide and compounds 7, 8, 16, 19, 23 and 27 described in Table 1 on binding of compound 1 to tubulin in Phytophthora capsici is shown in this example.
Zoospores of P. capsici were prepared as follows. Petri plates, 9 cm in diameter, containing 15 ml of V-8 agar were inoculated with a mycelial plug of P. capsici and incubated for 4 days in the dark at 25° C., then placed under continuous fluorescent light for 3 days to induce sporulation. To induce zoospore release, 15 ml of sterile water was added to each plate. The plates were incubated at room temperature for 10 minutes, followed by 20 minutes at 4° C., and finally returned to room temperature for 15 minutes. The zoospore-containing fluid was then removed from each plate and adjusted to a density of 5×10^5 zoospores per ml. Assay tubes containing germinated zoospores cysts were prepared by adding 100 μl of zoospore suspension to 400 μl of asparagine-sucrose medium in 16×1.25 cm polypropylene tubes, which were then loosely capped and incubated on a gyrotary shaker at 120 rpm for 24 hours at 26° C.
Tubes containing germinated zoospore cysts then received 2.5 μl of DMSO (control) or 2.5 μl of test compound dissolved in DMSO. Each compound was tested at a series of concentrations. Tubes were incubated with shaking at 26° C. for 1 hour, then 2.5 μl of a 40 μM solution of tritium-labeled compound 1 in DMSO were added. Vials were incubated with shaking at 26° C. for 20 minutes, then binding of the radioligand was stopped by adding 1.5 ml of ice-cold unlabeled 133 μM compound 1, and transferring the tubes to an ice bath. Following centrifugation at 3,400 rpm for 3 minutes, the supernatant was discarded and the pelleted cells were resuspended in 2 ml of ice-cold 10% trichloroacetic acid. Samples were kept for 1 hour in an ice bath, centrifuged again, and the cells resuspended in 2 ml of ice-cold ethanol. After incubation for a further 1 hour in an ice-bath, an additional 4 ml of ice-cold ethanol was added to each tube and the cells were collected by filtration on glass fiber filters in a Brandell cell harvester (Brandel Biomedical Research and Development Laboratories, Inc., Gaithersburg, Md.), and washed twice with 4 ml of ice-cold ethanol. The filters with washed cells were transferred to scintillation vials and 0.1 ml of water was added followed by 1 ml of Protosol™ (Dupont NEN Research Products). The vials were incubated at 60° C. for 30 minutes and cooled to room temperature. Ten ml of Econofluor™ scintillation fluid (Dupont NEN Research Products) was added, and the samples were counted in a scintillation counter to determine the amount of bound radioactivity. IC50 values for each test compound (defined as the concentration required to inhibit binding of the radioligand by 50% as compared to controls lacking the test compound) were determined from dose-response curves and are presented in Table 9.

[3] = tested on: tubulin in Phytophthora capsici mycelium; experiment: Whole cell binding assay, tritiated compound 1 as probe, Phytophthora capsici mycelium; settings: 1 hour preincubation, 20 min with tritiated compound 1
Method: The effect of paclitaxel on binding of compound 1 to tubulin in Phytophthora capsici is shown in this example.
A liquid mycelial shake culture of P. capsici in asparagine-sucrose medium was used to prepare a homogeneous suspension of fungal material for binding assays. Asparagine-sucrose medium (100 ml) was inoculated with mycelial plugs cut from cultures grown on V-8 agar, and incubated at 26° C. on a gyrotary shaker for 48 hours. The culture was homogenized in a blender, and 30 ml of the homogenate subcultured into 100 ml of fresh medium, which was then incubated at 26° C. on a gyrotary shaker for 17 hours. The resulting mycelium was recovered from the medium by centrifugation and resuspended in 1170 ml of fresh medium. Aliquots (2 ml) of this suspension were added to 25 ml capacity glass vials. Each vial then received 5 μl of DMSO (control) or 5 μl of paclitaxel dissolved in DMSO. Vials were incubated with shaking at 26° C. for 1 hour, then 5 μl of a 100 μM solution of tritium-labeled compound 1 in DMSO was added. Vials were incubated with shaking at 26° C. for 20 min, then binding of the radioligand was stopped by adding 5 μl of unlabeled 40 mM compound 1. The samples were incubated with shaking at 27° C. for a further 20 minutes, then transferred to 15 ml capacity centrifuge tubes in an ice bath. Each vial was rinsed with 2 ml ice-cold medium which was then added to the rest of the sample. Following centrifugation at 4° C. for 5 minutes at 3,400 rpm, the supernatant was discarded and the pelleted cells were resuspended in 4 ml of ice-cold 10% trichloroacetic acid. Samples were kept for 1 hour in an ice bath, centrifuged again, and the cells resuspended in 4 ml of ice-cold ethanol. After incubation for a further 2 hours in an ice-bath the cells were collected by filtration on glass fiber filters and washed twice with 10 ml of ice-cold ethanol. The filters with washed cells were transferred to scintillation vials, 10 ml of Hydrofluor™ scintillation fluid was added, and the samples were counted in a scintillation counter to determine the amount of bound radioactivity. The effect of paclitaxel at various concentrations on binding of the radioligand are presented in Table 8, with the amounts of radioligand bound in the presence of paclitaxel expressed as a percentage of the amount of radioligand bound in the DMSO control.

[4] = tested on: tubulin in colon cancer cell line HCT-116; experiment: Whole cell binding assay, tritiated S-enantiomer of compound 2 as probe, colon cancer cell line HCT-116; settings: for Binding of radioligand (% control): HCT-116, 1 hour preincubation, 1 hour with radioligand
Method: Effect of antitubulin compounds on binding of the tritiated S-enantiomer of compound 2 to tubulin in a whole cell binding assay using the colon cancer cell line HCT-116 is shown by this example.
The colon cancer cell line HCT-116 (obtained from the American Type Culture Collection) was cultured in 75 cm^2 flasks containing McCoy's 5a Modified Medium with 10% heat-inactivated fetal bovine serum, 50 U/ml of penicillin G and 50 U/ml of streptomycin sulfate. A cell suspension was prepared by trypsinization of the culture, and adjusted to a density of 10^6 cells/ml by dilution into incomplete medium (medium lacking serum, penicillin G and streptomycin). Aliquots (150 μl) of cell suspension were added to wells of 96-well glass fiber filter plates (Millipore Multiscreen® plates, 1 μm glass fiber, Type B). Wells then received 30 μl of a solution of the test antitubulin compound in incomplete medium/DMSO mixture (8.5:1, v/v) or 30 μl of the incomplete medium/DMSO mixture alone (control). After mixing, the plates were incubated at 37° C. for 1 hour, then 25 μl of 0.8 μM tritium-labeled S-enantiomer of compound 2 was added to each well. After mixing, the plates were incubated at 37° C. for 1 hour, then binding of the radioligand to tubulin was stopped by adding 50 μl of 100 μM unlabeled compound 2. The fluid was removed from the plate by vacuum filtration through the glass fiber, then 100 μl of ice-cold 10% trichloroacetic acid was added to each well. The plates were incubated for 1 h at 4° C., then the fluid was removed by filtration. Ice-cold ethanol (250 μl) was added to each well, the plates incubated for 1 h at 4° C., then the ethanol was removed by filtration. Wells were washed 4 more times with 250 μl of ice-cold ethanol. After drying the plates at 37° C. for 20 min, the glass fiber filters were punched out of the wells into scintillation vials, 5 ml of scintillation fluid was added to each vial, and the samples were counted in a scintillation counter to determine the amount of bound radioactivity. The effects of different antitubulin compounds on binding of the radioligand are presented in Table 11 with the amounts of radioligand bound in the presence of each antitubulin compound expressed as a percentage of the amount of radioligand bound in the control.

Chain of tubulin in Phytophthora capsici (A4ZYP2 entry or part of it): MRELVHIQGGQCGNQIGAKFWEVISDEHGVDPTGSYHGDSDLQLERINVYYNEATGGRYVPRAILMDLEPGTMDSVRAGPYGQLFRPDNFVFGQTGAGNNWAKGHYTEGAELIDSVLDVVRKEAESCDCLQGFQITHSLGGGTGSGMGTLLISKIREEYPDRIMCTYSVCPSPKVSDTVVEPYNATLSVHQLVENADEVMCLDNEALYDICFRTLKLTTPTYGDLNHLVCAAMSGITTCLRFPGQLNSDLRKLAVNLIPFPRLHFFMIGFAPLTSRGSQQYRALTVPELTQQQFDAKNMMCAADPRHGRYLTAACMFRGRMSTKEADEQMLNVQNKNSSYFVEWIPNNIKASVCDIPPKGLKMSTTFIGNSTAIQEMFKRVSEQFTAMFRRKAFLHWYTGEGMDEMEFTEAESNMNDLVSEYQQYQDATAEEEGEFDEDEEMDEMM
Chain of tubulin in Phytophthora capsici (A4ZYP4 entry or part of it, further chain): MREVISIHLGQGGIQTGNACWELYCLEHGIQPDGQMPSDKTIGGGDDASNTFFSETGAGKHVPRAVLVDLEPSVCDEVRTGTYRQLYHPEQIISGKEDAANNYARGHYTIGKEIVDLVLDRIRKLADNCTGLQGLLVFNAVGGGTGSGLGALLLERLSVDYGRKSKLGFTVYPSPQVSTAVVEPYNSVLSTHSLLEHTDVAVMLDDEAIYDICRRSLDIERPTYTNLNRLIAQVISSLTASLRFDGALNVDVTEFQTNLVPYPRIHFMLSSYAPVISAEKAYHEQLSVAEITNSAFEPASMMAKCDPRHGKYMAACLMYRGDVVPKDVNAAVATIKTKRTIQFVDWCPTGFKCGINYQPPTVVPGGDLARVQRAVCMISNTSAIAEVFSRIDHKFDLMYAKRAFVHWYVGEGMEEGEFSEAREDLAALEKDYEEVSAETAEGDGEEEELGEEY

Structure (SMILES): CC(C)OC(=O)Nc1cccc(Cl)c1 [Chlorpropham, chlorpropham]
- Binding of radioligand (% control) ([1]; antitubulin compound 100 μM): 29.1 % control
- Effect on binding of the radioligand (in words) [1]: reduced binding of the radioligand

Structure (SMILES): CCC(C)(NC(=O)c1cc(Cl)cc(C=NOC)c1)C(=O)CCl (stereo not drawn) [Compound 7]
- IC50 [2]: 2.84 µM

Structure (SMILES): CCC(C)(NC(=O)c1cc(C)cc(Br)c1)C(=O)CCl (stereo not drawn) [Compound 8]
- IC50 [2]: 0.721 µM

Structure (SMILES): CCC(C)(NC(=O)c1cccc(C=NOC)c1)C(=O)CCl (stereo not drawn) [Compound 16]
- IC50 [2]: 3.76 µM

Structure (SMILES): CC(C)(NC(=O)c1cc(Cl)cc(Cl)c1)C(=O)CCl [Compound 19]
- IC50 [2]: 0.81 µM

Structure (SMILES): CCC(C)(NC(=O)c1cc(Cl)c(Cl)c(Cl)c1)C(=O)CCl (stereo not drawn) [Compound 23]
- IC50 [2]: 0.168 µM

Structure (SMILES): CC(C)C(C)(NC(=O)c1cc(Cl)cc(Cl)c1)C(=O)CCl (stereo not drawn) [Compound 27]
- IC50 [2]: 5.44 µM

Structure (SMILES): CC(=O)O[C@H]1C(=O)[C@@]2(C)[C@H]([C@H](OC(=O)c3ccccc3)[C@]3(O)C[C@H](OC(=O)[C@H](O)[C@@H](NC(=O)c4ccccc4)c4ccccc4)C(C)=C1C3(C)C)[C@]1(OC(C)=O)CO[C@@H]1C[C@@H]2O [Paclitaxel, paclitaxel]
- Binding of radioligand (% control) ([1]; antitubulin compound 25 μM): 50.3 % control
- Effect on binding of the radioligand (in words) [1]: reduced binding of the radioligand
- Binding of radioligand (% control) ([3]; 0.004 μM): 84.5 % control
- Binding of radioligand (% control) ([3]; 0.02 μM): 54.6 % control
- Binding of radioligand (% control) ([3]; 0.1 μM): 34.6 % control
- Binding of radioligand (% control) ([3]; 0.5 μM): 23.6 % control
- Binding of radioligand (% control) ([4]; 0.1 μM): 37 % control
- Binding of radioligand (% control) ([4]; 1 μM): 19 % control
- Binding of radioligand (% control) ([4]; 10 μM): 6 % control
- Binding of radioligand (% control) ([4]; 100 μM): 4 % control
- Effect on binding of the radioligand (in words) ([4]; HCT-116, tritiated S-enantiomer of compound 2): reduced binding of the radioligand

Structure (SMILES): C#CC(C)(C)NC(=O)c1cc(Cl)cc(Cl)c1 [Pronamide, pronamide]
- Binding of radioligand (% control) ([1]; antitubulin compound 100 μM): 68.7 % control
- Effect on binding of the radioligand (in words) [1]: reduced binding of the radioligand

Structure (SMILES): CCCN(CCC)c1c([N+](=O)[O-])cc(C(F)(F)F)cc1[N+](=O)[O-] [Trifluralin, trifluralin]
- Binding of radioligand (% control) ([1]; antitubulin compound 100 μM): 129.0 % control
- Effect on binding of the radioligand (in words) [1]: increased binding of the radioligand

Structure (SMILES): CCOC(C#N)NC(=O)c1ccc(Cl)cc1 (stereo not drawn) [Zarilamide, zarilamide]
- IC50 (concentration required to inhibit binding of the radioligand by 50%) ([2]; 20 minutes with tritiated compound 1): 7.02 µg/mL
